Reference: patent US8895608B2, “Sulfonamide anti-viral compounds” (Kineta, Inc., priority 2010, dated 2014)
“Also recorded” adds a separate entry of the source.

Assays:
Huh7 cells = assay: MTS assay to determine cytotoxicity; type: cell-based, human; details: 24 hours, up to 50 μM
Protocol: MTS assay to determine cytotoxicity. Cultured human Huh7 cells are treated with increasing amounts of KIN600 or equivalent amounts of DMSO diluted in media for 24 hours to see their effect on cell viability.
Cell Titer One (Promega) is the one step reagent used according to manufacturer's protocol, and cells are incubated for three hours in the presence of reagent before O.D. reading is done. Compounds were diluted to final concentrations of 0, 5, 10, 20, and 50 μM in media containing 0.5% DMSO. Negative control wells contain no compound and positive control for cytotoxicity is examined using an EMCV infection which causes 100% cytopathic effect. Each compound concentration and control is done in triplicate wells to generate error bars.
Final KIN600 concentrations of 50 μM, 20 μM, 10 μM, and 5 μM were made in 0.5% DMSO containing media and were added to Huh7 cells to examine cytotoxicity in a MTS assay. Cells were treated for 24 hours with varying concentrations of compound and were analyzed for cell viability compared to negative control samples that were not treated with compound but grown in DMSO containing media. The cellular metabolism (O.D.) was in the range of 1.75 to below 2.0 at compound concentrations of 50 μM, 20 μM, 10 μM, 5 μM, and 0.

HCV2a virus = assay: HCV IF antiviral assay; type: cell-based, Hepatitis C virus
[1] = tested on: Murine Encephalomyocarditis virus (EMCV); assay: EMCV antiviral assay (cell viability by MTS after infection); details: Huh7 cells, 250 pfu EMCV, 18 hours

How did the “cytotoxicity (result in words)” value (Huh7 cells) turn out when COC(=O)c1sccc1S(=O)(=O)Nc1ccc2c(c1)OCO2 [KIN600] was run?
The value was “no significant cytotoxicity; also recorded: no significant toxicity”.

And the “HCV infected foci (number of FFU/well)” value (HCV2a virus; Huh7 cells pre-treated 24 hours at 10 μM, HCV2a MOI 0.1-0.5)?
Its value is 12±4 FFU/well.

What about the “antiviral activity against HCV (result in words)” value (HCV2a virus; Huh7 cells, HCV2a) of the same compound?
Its value is “showed antiviral activity; also recorded: has antiviral properties”.

What about the Cell viability post-infection ([1]; 5 μL) of the same compound?
Its Cell viability post-infection is about 0.7.

What about the Cell viability post-infection ([1]; 10 μL) of the same compound?
Its Cell viability post-infection is about 1.4.
